Source: patent publication US20130116215A1, “COMBINATION THERAPIES FOR TREATING NEUROLOGICAL DISORDERS” (priority 2011, published 2013)
Entries after “also recorded” stand apart in the source; their conditions may differ. Like-named read-outs stand apart in the source and are kept apart here.

Columns and labels:
[1] = tested on: cells stably expressing wild-type presenilin-1 an Aβ precursor protein; assay: Aβ1-40 and Aβ1-42 ELISA on extracellular media of treated cells; assay type: cell-based
Source text: The putative neurological effects of this drug have been confirmed experimentally using sensitive Aβ1-40 and Aβ1-42 ELISA kits (Wako, Osaka, Japan) on the extracellular media of treated and untreated cells stably expressing wild-type presenilin-1 an Aβ precursor protein. […] Aggregation and fibril formation of Aβ peptides are central events in the pathogenesis of Alzheimer's disease. Previous studies have established the ratio of Aβ1-40 to Aβ1-42 as an important factor in determining the fibrillogenesis, and toxicity of amyloid plaques.

[2] = target: T1, Acetylcholinesterase (AChE) (Electrophorus electricus, UniProt O42275); assay type: biochemical
T1 construct: purchased Invitrogen, Carlsbad, Calif
T1 sequence (O42275 24-633): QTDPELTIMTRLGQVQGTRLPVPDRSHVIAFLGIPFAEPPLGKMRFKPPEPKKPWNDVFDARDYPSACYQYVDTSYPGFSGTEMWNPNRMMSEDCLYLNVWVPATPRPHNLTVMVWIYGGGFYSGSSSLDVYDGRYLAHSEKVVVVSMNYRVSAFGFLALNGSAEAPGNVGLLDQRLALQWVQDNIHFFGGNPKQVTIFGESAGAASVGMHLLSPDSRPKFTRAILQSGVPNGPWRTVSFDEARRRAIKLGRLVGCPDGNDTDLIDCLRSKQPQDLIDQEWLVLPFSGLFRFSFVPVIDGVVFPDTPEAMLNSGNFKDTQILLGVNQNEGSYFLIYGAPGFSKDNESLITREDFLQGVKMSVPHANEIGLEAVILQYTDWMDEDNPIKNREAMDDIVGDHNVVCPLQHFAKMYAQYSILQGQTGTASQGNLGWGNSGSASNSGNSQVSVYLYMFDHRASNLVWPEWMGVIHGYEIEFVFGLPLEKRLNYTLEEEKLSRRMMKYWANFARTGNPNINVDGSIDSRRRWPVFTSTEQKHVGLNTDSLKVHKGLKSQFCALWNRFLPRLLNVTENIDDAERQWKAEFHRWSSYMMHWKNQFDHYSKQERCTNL
Procedure: (§1) Current therapy for AD is based on improving the brain synaptic availability of acetylcholine by using acetylcholinesterase inhibitors (AChEls). Therefore, potential drug effect on neuronal dysfunction was studied with an in vitro Acetylcholinesterase (AChE) assay using Amplex Red Acetylcholine/Assay Kit (Invitrogen, Carlsbad, Calif.). The efficacy of ridogrel on memory was obtained running dose-response (10-100 μM). 10 μM Eserine, an anticholinesterase drug, was used as positive control.
as §1, with “diminazene aceturate” for “ridogrel”, “(1-500” for “(10-100”

TAU phosphorylation = assay: phospho-tau and Tau ELISA assay in tau-transfected HT4 cells; assay type: cell-based; settings: tau-transfected mouse hippocampal-derived HT4 cell line
Procedure: Docetaxel is a clinically well established anti-mitotic chemotherapy medication used mainly for the treatment of breast, ovarian and non-small cell lung cancer which had shown close proximity with Tau motive. Neurofibrillary tangles, a hallmark of AD, are intracellular abnormally aggregates of hyperphosphorylated protein TAU [19]. In that sense, Tau pathology was evaluated on tau-transfected in a mouse hippocampal-derived HT4 cell line using a phospho-tau and Tau ELISA assay (Sigma-aldrich, St Louis, Mo.). The level of TAU phosphorylation is used as an indicator of the degree of TAU pathology.

[3] = extracellular media, treated vs untreated cells

SMILES: Cc1c(OCC(F)(F)F)ccnc1C[S+]([O-])c1nc2ccccc2[nH]1 (stereo not shown) [Lansoprazole]
- Aβ1-40 peptide production [1, 3]: significantly increases
- Aβ1-42 peptide production [1, 3]: significantly increase
- Aβ1-40/Aβ1-42 ratio ([1]; treated cells): significant reduction; also recorded: reduces

SMILES: O=C(O)CCCCO/N=C(/c1cccnc1)c1cccc(C(F)(F)F)c1 [Ridogrel]
- inhibition of AChE ([2]; dose-response 10-100 μM, inhibition with dose 100 to 25 μM): dose-dependent inhibition

SMILES: CC(=O)O[C@@]12CO[C@@H]1C[C@H](O)[C@@]1(C)C(=O)[C@H](O)C3=C(C)[C@@H](OC(=O)[C@H](O)[C@@H](NC(=O)OC(C)(C)C)c4ccccc4)C[C@@](O)([C@@H](OC(=O)c4ccccc4)[C@H]21)C3(C)C [Docetaxel]
- TAU phosphorylation (pTAU/TAU ratio) (TAU phosphorylation): significantly reduces
- TAU phosphorylation (pTAU/TAU ratio) (TAU phosphorylation; listed as docetaxel): reduces TAU phosphorylation

SMILES: N=C(N)c1ccc(/N=N/Nc2ccc(C(=N)N)cc2)cc1 [Diminazene Aceturate, Diminazene aceturate]
- inhibition of AChE ([2]; dose-response 1-500 μM, inhibition with dose 500 to 10 μM): dose-dependent inhibition
